The record followed here is US8404679B2, “Pyrrolidine derivatives as NK2 receptor antagonists” (Hoffmann-La Roche Inc., priority 2008, dated 2013).

Structures are written as SMILES.

In the assay the target is T1, human NK2 receptor (Homo sapiens, UniProt P21452).
T1 construct: purchased Perkin Elmer biosignal Inc. 6110510
T1 sequence (P21452 1-398): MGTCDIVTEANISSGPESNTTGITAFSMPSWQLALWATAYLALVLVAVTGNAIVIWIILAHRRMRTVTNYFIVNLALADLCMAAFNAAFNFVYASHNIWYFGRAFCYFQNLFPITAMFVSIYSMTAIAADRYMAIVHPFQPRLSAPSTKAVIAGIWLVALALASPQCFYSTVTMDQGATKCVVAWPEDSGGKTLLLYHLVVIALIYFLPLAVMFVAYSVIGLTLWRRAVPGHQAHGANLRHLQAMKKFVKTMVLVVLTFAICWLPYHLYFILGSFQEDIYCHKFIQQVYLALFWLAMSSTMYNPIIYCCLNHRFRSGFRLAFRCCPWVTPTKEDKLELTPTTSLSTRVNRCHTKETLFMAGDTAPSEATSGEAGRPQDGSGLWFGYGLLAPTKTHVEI
In words: [3H]SR48968 competition binding assay. Particulars: [3H]SR48968 displacement, membranes of CHO cells stably expressing recombinant human NK2 receptor; Ki from IC50 by Cheng-Prussoff. Summed up:
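Membranes from CHO cells stably expressing recombinant human NK2 were incubated 75 min at RT with [3H]SR48968 at its KD and 10 compound concentrations (0.0003–10 μM) in Tris-HCl pH 7.4, MnCl2, chymostatin, BSA. Filter-bound radioactivity was counted; Hill-fitted IC50 converted to Ki via Cheng-Prusoff.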
A word on the Ki: it is the equilibrium dissociation constant of an inhibitor or competing ligand from its target. `COc1ccc(C(=O)N[C@H]2CN(C(=O)C3CCN(C(=O)C4(C)CC4)CC3)C[C@@H]2c2ccc(Cl)cc2C)cc1C(F)(F)F` (racemic) [Example 122, N-{(3RS,4SR)-4-(4-Chloro-2-methyl-phenyl)-1-[1-(1-methyl-cyclopropanecarbonyl)-piperidine-4-carbonyl]-pyrrolidin-3-yl}-4-methoxy-3-trifluoromethyl-benzamide]: the Ki was found to be 82 nM. With `CN(C(=O)CC1CCOCC1)[C@H]1CN(C(=O)C2CCN(C(=O)C3(C)CC3)CC2)C[C@@H]1c1ccc(Cl)c(Cl)c1` (racemic) [Example 124, N-{(3RS,4SR)-4-(3,4-Dichloro-phenyl)-1-[1-(1-methyl-cyclopropanecarbonyl)-piperidine-4-carbonyl]-pyrrolidin-3-yl}-N-methyl-2-(tetrahydro-pyran-4-yl)-acetamide], the Ki turned out to be 13 nM. In the case of `CN(C(=O)C(C)(C)c1ccc(F)cc1)[C@H]1CN(C(=O)C2CCN(C(=O)C3(C)CC3)CC2)C[C@@H]1c1ccc(Cl)c(Cl)c1` (racemic) [Example 125, N-{(3RS,4SR)-4-(3,4-Dichloro-phenyl)-1-[1-(1-methyl-cyclopropanecarbonyl)-piperidine-4-carbonyl]-pyrrolidin-3-yl}-2-(4-fluoro-phenyl)-N-methyl-isobutyramide], the Ki was 67.9 nM.

As to `COc1ccc(C(=O)N(C)[C@H]2CN(C(=O)C3CCN(CCCSC)CC3)C[C@@H]2c2ccc(Cl)cc2)cc1C(F)(F)F` (racemic) [Example 126, N-{(3RS,4SR)-4-(4-Chloro-phenyl)-1-[1-(3-methylsulfanyl-propyl)-piperidine-4-carbonyl]-pyrrolidin-3-yl}-4-methoxy-N-methyl-3-trifluoromethyl-benzamide], the Ki is 0.9 nM. Turning to `COC1CCC(C(=O)N2C[C@H](c3ccc(Cl)c(Cl)c3)[C@@H](N(C)C(=O)Cc3ccc(F)cc3)C2)CC1` (mixture of isomers) [Example 127, N-[(3RS,4SR)-4-(3,4-Dichloro-phenyl)-1-(4-methoxy-cyclohexanecarbonyl)-pyrrolidin-3-yl]-2-(4-fluoro-phenyl)-N-methyl-acetamide], the inhibition constant Ki amounted to 35 nM. On to `COc1ccc(C(=O)N(C)[C@H]2CN(C(=O)C3CCN(CCCS(C)(=O)=O)CC3)C[C@@H]2c2ccc(Cl)cc2)cc1C(F)(F)F` (racemic) [Example 131, N-{(3RS,4SR)-4-(4-Chloro-phenyl)-1-[1-(3-methanesulfonyl-propyl)-piperidine-4-carbonyl]-pyrrolidin-3-yl}-4-methoxy-N-methyl-3-trifluoromethyl-benzamide], for which the inhibitory constant (Ki) amounted to 0.1 nM. For `COc1ccc(C(=O)N(C)[C@H]2CN(C(=O)C3CCN(C(=O)OC(C)(C)C)CC3)C[C@@H]2c2ccc(Cl)c(Cl)c2)cc1C(F)(F)F` (racemic) [Example 132, 4-{(3SR,4RS)-3-(3,4-Dichloro-phenyl)-4-[(4-methoxy-3-trifluoromethyl-benzoyl)-methyl-amino]-pyrrolidine-1-carbonyl}-piperidine-1-carboxylic acid tert-butyl ester], the Ki turned out to be 1.3 nM. In the case of `COc1ccc(C(=O)N(C)[C@H]2CN(C(=O)C3CCNCC3)C[C@@H]2c2ccc(Cl)c(Cl)c2)cc1C(F)(F)F` (racemic) [Example 133, N-[(3RS,4SR)-4-(3,4-Dichloro-phenyl)-1-(piperidine-4-carbonyl)-pyrrolidin-3-yl]-4-methoxy-N-methyl-3-trifluoromethyl-benzamide], the Ki turned out to be 0.2 nM. Take `CN(C(=O)Cc1ccc(F)cc1)[C@H]1CN(C(=O)c2ccc(N3CCOCC3)cc2)C[C@@H]1c1ccc(Cl)c(Cl)c1` (racemic) [Example 134, N-[(3RS,4SR)-4-(3,4-Dichloro-phenyl)-1-(4-morpholin-4-yl-benzoyl)-pyrrolidin-3-yl]-2-(4-fluoro-phenyl)-N-methyl-acetamide]: the Ki stood at 51.9 nM. Take `CN(C(=O)Cc1ccc(F)cc1)[C@H]1CN(C(=O)c2ccc(N3CCOCC3)nc2)C[C@@H]1c1ccc(Cl)c(Cl)c1` (racemic) [Example 135, N-[(3RS,4SR)-4-(3,4-Dichloro-phenyl)-1-(6-morpholin-4-yl-pyridine-3-carbonyl)-pyrrolidin-3-yl]-2-(4-fluoro-phenyl)-N-methyl-acetamide]: the inhibitory constant (Ki) stood at 85.4 nM. Regarding `COc1ccc(C(=O)N(C)[C@H]2CN(C(=O)C3CCN(CC4CC4)CC3)C[C@@H]2c2ccc(Cl)c(Cl)c2)cc1C(F)(F)F` (racemic) [Example 138, N-[(3RS,4SR)-1-(1-Cyclopropylmethyl-piperidine-4-carbonyl)-4-(3,4-dichloro-phenyl)-pyrrolidin-3-yl]-4-methoxy-N-methyl-3-trifluoromethyl-benzamide], the Ki came out at 0.5 nM. `COc1ccc(C(=O)N(C)[C@H]2CN(C(=O)C3CCN(CCC(F)(F)F)CC3)C[C@@H]2c2ccc(Cl)c(Cl)c2)cc1C(F)(F)F` (racemic) [Example 139, N-{(3RS,4SR)-4-(3,4-Dichloro-phenyl)-1-[1-(3,3,3-trifluoro-propyl)-piperidine-4-carbonyl]-pyrrolidin-3-yl}-4-methoxy-N-methyl-3-trifluoromethyl-benzamide]: the Ki turned out to be 0.6 nM. With `CCS(=O)(=O)N1CCC(C(=O)N2C[C@H](c3ccc(Cl)c(Cl)c3)[C@@H](N(C)C(=O)c3ccc(OC)c(C(F)(F)F)c3)C2)CC1` (racemic) [Example 140, N-[(3RS,4SR)-4-(3,4-Dichloro-phenyl)-1-(1-ethanesulfonyl-piperidine-4-carbonyl)-pyrrolidin-3-yl]-4-methoxy-N-methyl-3-trifluoromethyl-benzamide], the Ki worked out at 0.7 nM. Under `COc1ccc(C(=O)N(C)[C@H]2CN(C(=O)C3CCN(S(=O)(=O)C4CC4)CC3)C[C@@H]2c2ccc(Cl)c(Cl)c2)cc1C(F)(F)F` (racemic) [Example 141, N-[(3RS,4SR)-1-(1-Cyclopropanesulfonyl-piperidine-4-carbonyl)-4-(3,4-dichloro-phenyl)-pyrrolidin-3-yl]-4-methoxy-N-methyl-3-trifluoromethyl-benzamide] stands 0.7 nM.

For the compound `COc1ccc(C(=O)N(C)[C@H]2CN(C(=O)C3CCN(CCC#N)CC3)C[C@@H]2c2ccc(Cl)c(Cl)c2)cc1C(F)(F)F` (racemic) [Example 142, N-[(3RS,4SR)-1-[1-(2-Cyano-ethyl)-piperidine-4-carbonyl]-4-(3,4-dichloro-phenyl)-pyrrolidin-3-yl]-4-methoxy-N-methyl-3-trifluoromethyl-benzamide], the inhibition constant (Ki) was determined as 0.4 nM. Consider `CN(C(=O)Cc1ccc(F)cc1)C1CN(C(=O)C2CCN(CC3CC3)CC2)CC1c1ccc(Cl)c(Cl)c1` (racemic) [Example 143, N-[(3RS,4RS)-1-(1-Cyclopropylmethyl-piperidine-4-carbonyl)-4-(3,4-dichloro-phenyl)-pyrrolidin-3-yl]-2-(4-fluoro-phenyl)-N-methyl-acetamide], for which the Ki was found to be 26.9 nM. On to `COCCN1CCC(C(=O)N2C[C@H](c3ccc(Cl)c(Cl)c3)[C@@H](N(C)C(=O)c3ccc(OC)c(C(F)(F)F)c3)C2)CC1` (racemic) [Example 144, N-{(3RS,4SR)-4-(3,4-Dichloro-phenyl)-1-[1-(2-methoxy-ethyl)-piperidine-4-carbonyl]-pyrrolidin-3-yl}-4-methoxy-N-methyl-3-trifluoromethyl-benzamide], for which the inhibitory constant (Ki) stood at 0.9 nM. Under `CCOC(=O)N1CCC(C(=O)N2C[C@H](c3ccc(Cl)c(Cl)c3)[C@@H](N(C)C(=O)c3ccc(OC)c(C(F)(F)F)c3)C2)CC1` (racemic) [Example 145, 4-{(3SR,4RS)-3-(3,4-Dichloro-phenyl)-4-[(4-methoxy-3-trifluoromethyl-benzoyl)-methyl-amino]-pyrrolidine-1-carbonyl}-piperidine-1-carboxylic acid ethyl ester] stands 1.1 nM; under `COc1ccc(C(=O)N(C)[C@H]2CN(C(=O)c3ccc(-c4nc(C)no4)cc3)C[C@@H]2c2ccc(Cl)c(Cl)c2)cc1C(F)(F)F` (racemic) [Example 147, N-{(3RS,4SR)-4-(3,4-Dichloro-phenyl)-1-[4-(3-methyl-[1,2,4]oxadiazol-5-yl)-benzoyl]-pyrrolidin-3-yl}-4-methoxy-N-methyl-3-trifluoromethyl-benzamide], 1.4 nM; under `C=C(F)CN1CCC(C(=O)N2C[C@H](c3ccc(Cl)c(Cl)c3)[C@@H](N(C)C(=O)c3ccc(OC)c(C(F)(F)F)c3)C2)CC1` (racemic) [Example 148, N-{(3RS,4SR)-4-(3,4-Dichloro-phenyl)-1-[1-(2-fluoro-allyl)-piperidine-4-carbonyl]-pyrrolidin-3-yl}-4-methoxy-N-methyl-3-trifluoromethyl-benzamide], 0.5 nM. Take `CN(C(=O)Cc1ccc(F)c(F)c1)[C@H]1CN(C(=O)C2CCN(CC3CC3)CC2)C[C@@H]1c1ccc(Cl)c(Cl)c1` (racemic) [Example 150, N-[(3RS,4SR)-1-(1-Cyclopropylmethyl-piperidine-4-carbonyl)-4-(3,4-dichloro-phenyl)-pyrrolidin-3-yl]-2-(3,4-difluoro-phenyl)-N-methyl-acetamide]: the Ki came out at 19.8 nM.

With `CN(C(=O)CC1CCCC1)[C@H]1CN(C(=O)C2CCN(CC3CC3)CC2)C[C@@H]1c1ccc(Cl)c(Cl)c1` (racemic) [Example 151, 2-Cyclopentyl-N-[(3RS,4SR)-1-(1-cyclopropylmethyl-piperidine-4-carbonyl)-4-(3,4-dichloro-phenyl)-pyrrolidin-3-yl]-N-methyl-acetamide], the Ki was found to be 6.7 nM.
